By IC50 is commonly meant the point on the concentration scale where inhibition reaches its midpoint.

For one compound, IC50 results are on record in publication PMC6230386, “Gossypol from Cottonseeds Ameliorates Glucose Uptake by Mimicking Insulin Signaling and Improves Glucose Homeostasis in Mice with Streptozotocin-Induced Diabetes” (Oxidative Medicine and Cellular Longevity, 2018).

This assay has as its target α-glucosidase. Briefly: pNPG hydrolysis at […] nm; Lineweaver-Burk kinetics. The format is biochemical, Saccharomyces cerevisiae.

In turn, `Cc1cc2c(C(C)C)c(O)c(O)c(C=O)c2c(O)c1-c1c(C)cc2c(C(C)C)c(O)c(O)c(C=O)c2c1O` [GSP, gossypol] displayed a half-maximal inhibitory concentration (IC50) of 670 ± 440 nM.
